Experimental data: ChEMBL document CHEMBL5303573, “Mapping human microbiome drug metabolism by gut bacteria and their genes” (Nature, 2019)

Columns and labels:
Conditions in all cases: 2 µM
[1] = biological target: T1, SGNH hydrolase-type esterase domain-containing protein (Phocaeicola dorei, UniProt B6W293); experiment: (§1) The drug is tested on Bacteroides dorei strain: DSM17855 for biotransformation. The drug concentrations were measured before and after a 12-h incubation by liquid-chromatography-coupled mass spectrometry (LC–MS); type: ADME; parameters: dose 2 uM
T1 sequence (B6W293 whole entry): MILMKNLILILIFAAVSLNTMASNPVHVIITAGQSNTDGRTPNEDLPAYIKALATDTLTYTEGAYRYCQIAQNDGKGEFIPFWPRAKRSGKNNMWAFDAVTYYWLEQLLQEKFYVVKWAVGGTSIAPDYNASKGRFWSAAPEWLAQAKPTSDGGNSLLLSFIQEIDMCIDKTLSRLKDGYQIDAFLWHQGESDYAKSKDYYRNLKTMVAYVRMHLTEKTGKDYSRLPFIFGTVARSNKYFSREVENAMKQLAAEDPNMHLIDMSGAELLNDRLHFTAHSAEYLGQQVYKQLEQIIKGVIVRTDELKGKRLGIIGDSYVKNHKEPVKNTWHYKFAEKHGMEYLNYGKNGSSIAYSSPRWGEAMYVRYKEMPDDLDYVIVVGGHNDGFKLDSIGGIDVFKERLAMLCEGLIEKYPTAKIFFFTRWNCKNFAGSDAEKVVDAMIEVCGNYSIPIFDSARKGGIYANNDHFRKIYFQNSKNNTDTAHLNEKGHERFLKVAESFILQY

[2] = biological target: T2, SGNH hydrolase-type esterase domain-containing protein (Phocaeicola dorei, UniProt B6VTE7); experiment: as §1; type: ADME; parameters: dose 2 uM
T2 sequence (B6VTE7 whole entry): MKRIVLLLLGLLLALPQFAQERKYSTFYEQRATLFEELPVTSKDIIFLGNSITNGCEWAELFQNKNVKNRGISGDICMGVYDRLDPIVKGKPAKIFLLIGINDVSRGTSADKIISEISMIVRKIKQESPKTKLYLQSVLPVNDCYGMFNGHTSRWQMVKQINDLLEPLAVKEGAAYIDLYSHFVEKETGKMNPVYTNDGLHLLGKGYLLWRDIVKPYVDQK

[3] = biological target: T3, SGNH hydrolase-type esterase domain-containing protein (Phocaeicola dorei, UniProt B6W1J1); experiment: as §1; type: ADME; parameters: dose 2 uM
T3 sequence (B6W1J1 whole entry): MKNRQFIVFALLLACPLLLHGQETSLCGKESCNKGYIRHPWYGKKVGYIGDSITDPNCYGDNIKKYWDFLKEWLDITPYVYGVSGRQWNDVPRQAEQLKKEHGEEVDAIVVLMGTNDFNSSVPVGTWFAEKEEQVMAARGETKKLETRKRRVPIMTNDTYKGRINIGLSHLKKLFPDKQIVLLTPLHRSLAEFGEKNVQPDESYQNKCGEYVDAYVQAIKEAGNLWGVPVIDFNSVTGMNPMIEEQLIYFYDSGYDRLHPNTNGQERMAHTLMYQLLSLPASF

[4] = (§2) The drug is tested on the gut metagenome community of MV18 with ENA study accession number: PRJEB31790 and ENA sample accession number: SAMEA5537499 for biotransformation. The drug concentrations were measured over 9 timepoints collected between 0 and 24 hours of incubation by liquid-chromatography-coupled mass spectrometry (LC–MS); type: ADME; parameters: dose 2 uM, timepoint 0, 1, 2, 4, 6, 8, 12, 18, 24 hours
[5] = as §2, with “MV10” for “MV18”, “SAMEA5537491” for “SAMEA5537499”; type: ADME; parameters: dose 2 uM, timepoint 0, 1, 2, 4, 6, 8, 12, 18, 24 hours
[6] = as §2, with “MV24” for “MV18”, “SAMEA5537505” for “SAMEA5537499”; type: ADME; parameters: dose 2 uM, timepoint 0, 1, 2, 4, 6, 8, 12, 18, 24 hours
[7] = as §2, with “MV07” for “MV18”, “SAMEA5537488” for “SAMEA5537499”; type: ADME; parameters: dose 2 uM, timepoint 0, 1, 2, 4, 6, 8, 12, 18, 24 hours
[8] = as §2, with “MV02” for “MV18”, “SAMEA5537483” for “SAMEA5537499”; type: ADME; parameters: dose 2 uM, timepoint 0, 1, 2, 4, 6, 8, 12, 18, 24 hours
[9] = as §2, with “MV25” for “MV18”, “SAMEA5537506” for “SAMEA5537499”; type: ADME; parameters: dose 2 uM, timepoint 0, 1, 2, 4, 6, 8, 12, 18, 24 hours
[10] = as §2, with “MV08” for “MV18”, “SAMEA5537489” for “SAMEA5537499”; type: ADME; parameters: dose 2 uM, timepoint 0, 1, 2, 4, 6, 8, 12, 18, 24 hours
[11] = as §2, with “MV01” for “MV18”, “SAMEA5537482” for “SAMEA5537499”; type: ADME; parameters: dose 2 uM, timepoint 0, 1, 2, 4, 6, 8, 12, 18, 24 hours
[12] = as §2, with “MV15” for “MV18”, “SAMEA5537496” for “SAMEA5537499”; type: ADME; parameters: dose 2 uM, timepoint 0, 1, 2, 4, 6, 8, 12, 18, 24 hours
[13] = as §2, with “MV11” for “MV18”, “SAMEA5537492” for “SAMEA5537499”; type: ADME; parameters: dose 2 uM, timepoint 0, 1, 2, 4, 6, 8, 12, 18, 24 hours
[14] = as §2, with “MV14” for “MV18”, “SAMEA5537495” for “SAMEA5537499”; type: ADME; parameters: dose 2 uM, timepoint 0, 1, 2, 4, 6, 8, 12, 18, 24 hours
[15] = as §2, with “MV13” for “MV18”, “SAMEA5537494” for “SAMEA5537499”; type: ADME; parameters: dose 2 uM, timepoint 0, 1, 2, 4, 6, 8, 12, 18, 24 hours
[16] = as §2, with “MV22” for “MV18”, “SAMEA5537503” for “SAMEA5537499”; type: ADME; parameters: dose 2 uM, timepoint 0, 1, 2, 4, 6, 8, 12, 18, 24 hours
[17] = as §2, with “MV23” for “MV18”, “SAMEA5537504” for “SAMEA5537499”; type: ADME; parameters: dose 2 uM, timepoint 0, 1, 2, 4, 6, 8, 12, 18, 24 hours
[18] = as §2, with “MV26” for “MV18”, “SAMEA5537507” for “SAMEA5537499”; type: ADME; parameters: dose 2 uM, timepoint 0, 1, 2, 4, 6, 8, 12, 18, 24 hours
[19] = as §2, with “MV27” for “MV18”, “SAMEA5537508” for “SAMEA5537499”; type: ADME; parameters: dose 2 uM, timepoint 0, 1, 2, 4, 6, 8, 12, 18, 24 hours
[20] = The drug is tested on Proteus penneri strain: ATCC35198 for biotransformation. The drug concentrations were measured before and after a 12-h incubation by liquid-chromatography-coupled mass spectrometry (LC–MS)

| SMILES | Bacterial Biotransformation [1] | Bacterial Biotransformation [2] | Bacterial Biotransformation [3] | Bacterial Biotransformation [4] | Bacterial Biotransformation [5] | Bacterial Biotransformation [6] | Bacterial Biotransformation [7] | Bacterial Biotransformation [8] | Bacterial Biotransformation [9] | Bacterial Biotransformation [10] | Bacterial Biotransformation [11] | Bacterial Biotransformation [12] | Bacterial Biotransformation [13] | Bacterial Biotransformation [14] | Bacterial Biotransformation [15] | Bacterial Biotransformation [16] | Bacterial Biotransformation [17] | Bacterial Biotransformation [18] | Bacterial Biotransformation [19] | Bacterial Biotransformation [20] |
| --- | --- | --- | --- | --- | --- | --- | --- | --- | --- | --- | --- | --- | --- | --- | --- | --- | --- | --- | --- | --- |
| C#C[C@]1(O)CC[C@H]2[C@@H]3CCC4=CC(=O)CC[C@@H]4[C@H]3CC[C@@]21CC [LEVONORGESTREL] | Compound NOT metabolized | Compound NOT metabolized | Compound NOT metabolized | – | – | – | – | – | – | – | – | – | – | – | – | – | – | – | – | – |
| COc1ccc([C@@H]2Sc3ccccc3N(CCN(C)C)C(=O)[C@@H]2OC(C)=O)cc1 [DILTIAZEM] | Compound NOT metabolized | Compound NOT metabolized | Compound NOT metabolized | Compound NOT metabolized | Compound NOT metabolized | Compound NOT metabolized | Compound NOT metabolized | Compound NOT metabolized | Compound NOT metabolized | Compound NOT metabolized | Compound NOT metabolized | Compound NOT metabolized | Compound NOT metabolized | Compound NOT metabolized | Compound NOT metabolized | Compound NOT metabolized | Compound NOT metabolized | Compound NOT metabolized | Compound NOT metabolized | – |
| O=C(CCCN1CCC(O)(c2ccc(Cl)cc2)CC1)c1ccc(F)cc1 [HALOPERIDOL] | – | – | – | – | – | – | – | – | – | – | – | – | – | – | – | – | – | – | – | Compound NOT metabolized |
| C#C[C@]1(OC(C)=O)CC[C@H]2[C@@H]3CCC4=C/C(=N/O)CC[C@@H]4[C@H]3CC[C@@]21CC [NORGESTIMATE] | – | – | – | – | – | – | – | – | – | – | – | – | – | – | – | – | – | – | – | Compound NOT metabolized |
| Cc1ccc(NC(=O)c2ccc(CN3CCN(C)CC3)cc2)cc1Nc1nccc(-c2cccnc2)n1 [IMATINIB] | – | – | – | – | – | – | – | – | – | – | – | – | – | – | – | – | – | – | – | Compound NOT metabolized |
| N#Cc1ccc2c(c1)N(CCCN1CCC(O)CC1)c1ccccc1S2 [PERICIAZINE] | Compound NOT metabolized | Compound NOT metabolized | Compound NOT metabolized | – | – | – | – | – | – | – | – | – | – | – | – | – | – | – | – | – |
| CC(=O)OCC(CCn1cnc2cnc(N)nc21)COC(C)=O [FAMCICLOVIR] | Compound metabolized | Compound metabolized | – | Compound metabolized | Compound metabolized | Compound metabolized | Compound metabolized | Compound metabolized | Compound metabolized | Compound metabolized | Compound metabolized | Compound metabolized | Compound metabolized | Compound metabolized | Compound metabolized | Compound metabolized | Compound metabolized | Compound metabolized | Compound metabolized | – |
| COC(=O)Nc1nc2ccc(C(=O)c3ccccc3)cc2[nH]1 [MEBENDAZOLE] | – | – | – | – | – | – | – | – | – | – | – | – | – | – | – | – | – | – | – | Compound NOT metabolized |
| C#C[C@]1(OC(C)=O)CC[C@H]2[C@@H]3CCC4=CC(=O)CC[C@@H]4[C@H]3CC[C@@]21C [NORETHINDRONE ACETATE] | Compound NOT metabolized | Compound NOT metabolized | Compound NOT metabolized | Compound metabolized | Compound metabolized | Compound metabolized | Compound metabolized | Compound metabolized | Compound metabolized | Compound metabolized | Compound metabolized | Compound metabolized | Compound metabolized | Compound metabolized | Compound metabolized | Compound metabolized | Compound metabolized | Compound metabolized | Compound metabolized | – |
| CN1[C@@H]2CC[C@H]1C[C@@H](OC(=O)C(CO)c1ccccc1)C2 (some centres not stated) [ATROPINE] | – | – | – | – | – | – | – | – | – | – | – | – | – | – | – | – | – | – | – | Compound NOT metabolized |
